Read-outs that look alike come from different tables or passages of the source.
Key:
Assay in all cases: NanoBRET single-dose fractional occupancy profiling of kinase/Nluc library in live HEK293 cells (Table S1)
Format in all cases: binding
Set-up in all cases: receptor occupancy: dose or concentration left out as unconfirmed; Occupancy, % Replicate 1 / Occupancy, % Replicate 2: unit of the concentration uncertain
178 full-length kinases [1] = biological target: 178 full-length kinases (Homo sapiens, UniProt O76039); conditions: CDKL5, Nluc N, probe 5 at 1 (unit uncertain)
178 full-length kinases [2] = biological target: 178 full-length kinases (Homo sapiens, UniProt P78368); conditions: CSNK1G2, Nluc N, probe 5 at 1 (unit uncertain)
178 full-length kinases [3] = biological target: 178 full-length kinases (Homo sapiens, UniProt Q02779); conditions: MAP3K10, Nluc N, probe 5 at 1 (unit uncertain)
178 full-length kinases [4] = biological target: 178 full-length kinases (Homo sapiens, UniProt P31751); conditions: AKT2, Nluc C, probe 5 at 1 (unit uncertain)
Chain of 178 full-length kinases (Homo sapiens, UniProt P31751) (P31751 whole entry): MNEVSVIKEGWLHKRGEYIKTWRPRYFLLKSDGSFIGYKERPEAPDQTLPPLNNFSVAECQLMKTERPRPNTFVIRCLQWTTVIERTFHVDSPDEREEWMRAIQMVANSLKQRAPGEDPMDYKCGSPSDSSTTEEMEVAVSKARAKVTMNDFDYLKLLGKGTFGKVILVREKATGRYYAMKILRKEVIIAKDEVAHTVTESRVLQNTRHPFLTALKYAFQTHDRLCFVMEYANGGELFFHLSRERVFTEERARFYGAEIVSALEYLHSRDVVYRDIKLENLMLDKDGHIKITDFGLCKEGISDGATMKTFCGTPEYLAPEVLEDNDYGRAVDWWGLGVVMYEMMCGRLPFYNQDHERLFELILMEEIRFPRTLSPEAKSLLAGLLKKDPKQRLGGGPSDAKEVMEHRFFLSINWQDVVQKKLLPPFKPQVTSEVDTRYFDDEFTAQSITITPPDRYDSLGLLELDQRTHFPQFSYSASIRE

178 full-length kinases [5] = biological target: 178 full-length kinases (Homo sapiens, UniProt Q96L34); conditions: MARK4, Nluc N, probe 5 at 1 (unit uncertain)
Chain of 178 full-length kinases (Homo sapiens, UniProt Q96L34) (Q96L34 whole entry): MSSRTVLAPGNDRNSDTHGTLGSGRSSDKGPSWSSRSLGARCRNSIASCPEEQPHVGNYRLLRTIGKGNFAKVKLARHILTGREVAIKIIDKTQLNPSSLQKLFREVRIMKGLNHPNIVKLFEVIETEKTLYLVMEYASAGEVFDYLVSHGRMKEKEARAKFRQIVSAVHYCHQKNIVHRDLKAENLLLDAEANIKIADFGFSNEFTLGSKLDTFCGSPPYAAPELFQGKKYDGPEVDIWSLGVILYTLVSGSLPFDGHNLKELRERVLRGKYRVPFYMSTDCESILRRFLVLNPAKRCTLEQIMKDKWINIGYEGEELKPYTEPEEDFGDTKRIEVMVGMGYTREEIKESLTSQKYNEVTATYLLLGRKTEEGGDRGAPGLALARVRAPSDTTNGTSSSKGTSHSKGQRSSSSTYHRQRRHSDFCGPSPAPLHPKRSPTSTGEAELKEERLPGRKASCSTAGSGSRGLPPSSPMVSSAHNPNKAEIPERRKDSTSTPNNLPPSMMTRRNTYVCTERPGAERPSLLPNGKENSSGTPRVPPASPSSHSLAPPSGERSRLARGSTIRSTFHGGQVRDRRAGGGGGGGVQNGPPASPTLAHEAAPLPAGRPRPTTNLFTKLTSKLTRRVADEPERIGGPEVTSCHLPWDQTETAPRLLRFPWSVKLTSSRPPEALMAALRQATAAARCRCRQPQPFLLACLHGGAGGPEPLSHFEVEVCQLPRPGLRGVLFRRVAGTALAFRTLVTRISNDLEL

178 full-length kinases [6] = biological target: 178 full-length kinases (Homo sapiens, UniProt Q8NG66); conditions: NEK11, Nluc N, probe 5 at 1 (unit uncertain)
178 full-length kinases [7] = biological target: 178 full-length kinases (Homo sapiens, UniProt Q99640); conditions: PKMYT1, Nluc C, probe 2 at 1 (unit uncertain)
178 full-length kinases [8] = biological target: 178 full-length kinases (Homo sapiens, UniProt Q15349); conditions: RPS6KA2 (NP_001305865), Nluc orientation N, probe 5 at 0.5 (unit uncertain)
Chain of 178 full-length kinases (Homo sapiens, UniProt Q15349) (Q15349 whole entry): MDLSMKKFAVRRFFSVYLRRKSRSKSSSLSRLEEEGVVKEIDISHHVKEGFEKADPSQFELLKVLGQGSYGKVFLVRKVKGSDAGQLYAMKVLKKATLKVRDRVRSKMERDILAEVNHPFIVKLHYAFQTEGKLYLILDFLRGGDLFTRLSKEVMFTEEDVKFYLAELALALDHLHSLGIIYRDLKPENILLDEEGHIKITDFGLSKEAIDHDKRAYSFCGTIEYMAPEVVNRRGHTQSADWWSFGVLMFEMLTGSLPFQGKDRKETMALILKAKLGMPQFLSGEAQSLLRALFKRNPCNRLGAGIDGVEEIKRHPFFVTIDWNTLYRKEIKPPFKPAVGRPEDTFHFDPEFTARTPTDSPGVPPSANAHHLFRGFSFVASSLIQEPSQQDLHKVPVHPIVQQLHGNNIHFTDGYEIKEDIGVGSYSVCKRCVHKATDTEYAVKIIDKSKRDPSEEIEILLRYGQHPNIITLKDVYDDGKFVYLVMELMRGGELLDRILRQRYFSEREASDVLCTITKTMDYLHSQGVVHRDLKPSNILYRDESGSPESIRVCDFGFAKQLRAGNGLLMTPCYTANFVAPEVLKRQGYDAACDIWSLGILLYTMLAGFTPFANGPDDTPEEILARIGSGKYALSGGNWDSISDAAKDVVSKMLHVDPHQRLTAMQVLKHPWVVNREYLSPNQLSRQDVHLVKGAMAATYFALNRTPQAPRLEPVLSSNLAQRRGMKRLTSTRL

178 full-length kinases [9] = biological target: 178 full-length kinases (Homo sapiens, UniProt O94768); conditions: STK17B (NP_004217), Nluc orientation C, probe 1 at 1 (unit uncertain)
Chain of 178 full-length kinases (Homo sapiens, UniProt O94768) (O94768 whole entry): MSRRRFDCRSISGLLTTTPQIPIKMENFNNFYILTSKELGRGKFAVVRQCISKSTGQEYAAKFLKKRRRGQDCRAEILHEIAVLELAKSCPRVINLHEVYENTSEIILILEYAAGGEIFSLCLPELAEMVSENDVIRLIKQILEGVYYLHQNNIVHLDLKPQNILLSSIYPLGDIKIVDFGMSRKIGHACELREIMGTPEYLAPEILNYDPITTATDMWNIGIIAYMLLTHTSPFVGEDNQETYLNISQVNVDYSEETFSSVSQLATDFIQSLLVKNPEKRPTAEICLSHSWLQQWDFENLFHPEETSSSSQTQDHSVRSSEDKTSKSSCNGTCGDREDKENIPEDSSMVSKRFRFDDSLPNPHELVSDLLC

178 full-length kinases [10] = biological target: 178 full-length kinases (Homo sapiens, UniProt P22455); conditions: FGFR4, Nluc C, probe 5 at 1 (unit uncertain)
178 full-length kinases [11] = biological target: 178 full-length kinases (Homo sapiens, UniProt P36896); conditions: ACVR1B, Nluc C, probe 5 at 1 (unit uncertain)
178 full-length kinases [12] = biological target: 178 full-length kinases (Homo sapiens, UniProt Q9H0K1); conditions: SNF1LK2 (NP_056006), Nluc orientation N, probe 6 at 0.1 (unit uncertain)
Chain of 178 full-length kinases (Homo sapiens, UniProt Q9H0K1) (Q9H0K1 whole entry): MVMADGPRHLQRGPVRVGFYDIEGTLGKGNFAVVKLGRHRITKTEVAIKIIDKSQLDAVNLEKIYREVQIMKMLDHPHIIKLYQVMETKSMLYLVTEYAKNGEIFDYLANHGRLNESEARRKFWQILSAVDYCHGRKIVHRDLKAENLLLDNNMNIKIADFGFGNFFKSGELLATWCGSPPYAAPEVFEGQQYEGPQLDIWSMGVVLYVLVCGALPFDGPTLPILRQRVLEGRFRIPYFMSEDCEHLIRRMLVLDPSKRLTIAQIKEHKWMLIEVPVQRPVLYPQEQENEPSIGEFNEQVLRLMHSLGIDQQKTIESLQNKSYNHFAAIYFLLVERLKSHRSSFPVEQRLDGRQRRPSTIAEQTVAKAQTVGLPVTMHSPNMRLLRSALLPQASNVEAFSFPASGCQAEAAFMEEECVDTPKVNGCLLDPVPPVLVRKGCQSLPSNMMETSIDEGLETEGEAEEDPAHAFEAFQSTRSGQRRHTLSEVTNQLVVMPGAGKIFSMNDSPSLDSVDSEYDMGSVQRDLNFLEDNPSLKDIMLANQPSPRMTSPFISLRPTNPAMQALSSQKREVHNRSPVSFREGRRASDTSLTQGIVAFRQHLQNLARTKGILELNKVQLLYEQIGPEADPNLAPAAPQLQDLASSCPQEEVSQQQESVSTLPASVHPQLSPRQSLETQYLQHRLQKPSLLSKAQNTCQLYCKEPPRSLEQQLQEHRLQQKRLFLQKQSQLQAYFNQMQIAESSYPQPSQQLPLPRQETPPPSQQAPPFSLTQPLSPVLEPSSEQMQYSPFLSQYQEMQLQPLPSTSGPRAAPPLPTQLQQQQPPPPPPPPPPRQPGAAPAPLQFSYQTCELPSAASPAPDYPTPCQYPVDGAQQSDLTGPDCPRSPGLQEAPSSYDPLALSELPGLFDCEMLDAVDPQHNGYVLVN

178 full-length kinases [13] = biological target: 178 full-length kinases (Homo sapiens, UniProt O96013); conditions: PAK4, Nluc C, probe 5 at 1 (unit uncertain)
178 full-length kinases [14] = biological target: 178 full-length kinases (Homo sapiens, UniProt Q7KZI7); conditions: MARK2, Nluc N, probe 5 at 1 (unit uncertain)
178 full-length kinases [15] = biological target: 178 full-length kinases (Homo sapiens, UniProt P54646); conditions: PRKAA2, Nluc N, probe 5 at 0.5 (unit uncertain)
Chain of 178 full-length kinases (Homo sapiens, UniProt P54646) (P54646 whole entry): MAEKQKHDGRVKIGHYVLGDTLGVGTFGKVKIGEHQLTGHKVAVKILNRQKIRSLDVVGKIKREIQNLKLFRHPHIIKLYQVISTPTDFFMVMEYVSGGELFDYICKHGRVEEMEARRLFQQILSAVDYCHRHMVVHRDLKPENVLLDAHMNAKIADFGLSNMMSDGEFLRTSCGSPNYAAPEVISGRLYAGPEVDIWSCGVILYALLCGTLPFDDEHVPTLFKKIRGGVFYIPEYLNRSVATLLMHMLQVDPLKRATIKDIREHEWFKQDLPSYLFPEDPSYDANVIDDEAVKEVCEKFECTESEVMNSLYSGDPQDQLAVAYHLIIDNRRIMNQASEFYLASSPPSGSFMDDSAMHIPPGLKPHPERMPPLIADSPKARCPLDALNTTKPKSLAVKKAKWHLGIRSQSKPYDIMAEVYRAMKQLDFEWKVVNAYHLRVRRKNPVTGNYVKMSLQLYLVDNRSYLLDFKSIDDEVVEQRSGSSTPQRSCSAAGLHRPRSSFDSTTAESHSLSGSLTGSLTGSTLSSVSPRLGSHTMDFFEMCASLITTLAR

178 full-length kinases [16] = biological target: 178 full-length kinases (Homo sapiens, UniProt Q14680); conditions: MELK, Nluc N, probe 5 at 1 (unit uncertain)
178 full-length kinases [17] = biological target: 178 full-length kinases (Homo sapiens, UniProt Q9BVS4); conditions: RIOK2, Nluc N, probe 5 at 1 (unit uncertain)
178 full-length kinases [18] = biological target: 178 full-length kinases (Homo sapiens, UniProt P07333); conditions: CSF1R, Nluc C, probe 6
Chain of 178 full-length kinases (Homo sapiens, UniProt P07333) (P07333 20-972): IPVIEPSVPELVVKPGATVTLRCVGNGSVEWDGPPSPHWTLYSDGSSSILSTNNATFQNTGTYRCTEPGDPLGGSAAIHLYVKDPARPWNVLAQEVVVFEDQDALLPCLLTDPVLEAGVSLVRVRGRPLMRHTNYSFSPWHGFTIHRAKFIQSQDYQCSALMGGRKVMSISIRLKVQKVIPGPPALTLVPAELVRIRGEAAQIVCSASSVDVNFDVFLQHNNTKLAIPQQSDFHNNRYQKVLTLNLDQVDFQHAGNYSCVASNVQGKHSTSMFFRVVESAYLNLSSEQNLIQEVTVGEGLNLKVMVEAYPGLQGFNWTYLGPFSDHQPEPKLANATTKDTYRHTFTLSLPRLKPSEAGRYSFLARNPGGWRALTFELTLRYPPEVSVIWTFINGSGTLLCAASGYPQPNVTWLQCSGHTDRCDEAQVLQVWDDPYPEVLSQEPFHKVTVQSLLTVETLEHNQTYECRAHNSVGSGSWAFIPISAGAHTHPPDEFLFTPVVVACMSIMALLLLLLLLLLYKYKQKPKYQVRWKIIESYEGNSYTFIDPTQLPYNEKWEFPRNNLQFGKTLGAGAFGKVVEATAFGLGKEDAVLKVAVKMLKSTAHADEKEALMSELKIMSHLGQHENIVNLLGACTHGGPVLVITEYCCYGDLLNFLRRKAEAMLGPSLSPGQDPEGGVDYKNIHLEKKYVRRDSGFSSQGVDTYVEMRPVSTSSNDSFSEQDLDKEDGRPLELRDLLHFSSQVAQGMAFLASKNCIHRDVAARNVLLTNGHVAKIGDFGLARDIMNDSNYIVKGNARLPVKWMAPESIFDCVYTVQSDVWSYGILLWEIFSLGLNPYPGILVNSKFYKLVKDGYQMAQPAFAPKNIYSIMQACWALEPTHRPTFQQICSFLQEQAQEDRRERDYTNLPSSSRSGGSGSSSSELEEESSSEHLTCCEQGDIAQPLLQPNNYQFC

178 full-length kinases [19] = biological target: 178 full-length kinases (Homo sapiens, UniProt P31749); conditions: AKT1, Nluc C, probe 5 at 1 (unit uncertain)

Compound: C[C@@H](Oc1cc(-c2cnn(C3CCNCC3)c2)cnc1N)c1c(Cl)ccc(F)c1Cl [Crizotinib]
- Occupancy, % Replicate 1 (178 full-length kinases [1]): No Binding
- Occupancy, % Replicate 2 (178 full-length kinases [1]): No Binding
- Occupancy, % Replicate 2 (178 full-length kinases [2]): No Binding
- Occupancy, % Replicate 1 (178 full-length kinases [3]): No Binding
- Occupancy, % Replicate 2 (178 full-length kinases [3]): No Binding
- Occupancy, % Replicate 1 (178 full-length kinases [4]): No Binding
- Occupancy, % Replicate 2 (178 full-length kinases [4]): No Binding
- Occupancy, % Replicate 1 (178 full-length kinases [5]): No Binding
- Occupancy, % Replicate 2 (178 full-length kinases [5]): No Binding
- Occupancy, % Replicate 2 (178 full-length kinases [6]): No Binding
- Occupancy, % Replicate 1 (178 full-length kinases [7]): No Binding
- Occupancy, % Replicate 1 (178 full-length kinases [8]; replicate 1): No Binding
- Occupancy, % Replicate 2 (178 full-length kinases [8]; replicate 2): No Binding
- Occupancy, % Replicate 1 (178 full-length kinases [9]; replicate 1): No Binding
- Occupancy, % Replicate 2 (178 full-length kinases [9]; replicate 2): No Binding
- Occupancy, % Replicate 1 (178 full-length kinases [10]): No Binding
- Occupancy, % Replicate 2 (178 full-length kinases [11]): No Binding
- Occupancy, % Replicate 1 (178 full-length kinases [12]; replicate 1): No Binding
- Occupancy, % Replicate 2 (178 full-length kinases [12]; replicate 2): No Binding
- Occupancy, % Replicate 2 (178 full-length kinases [13]): No Binding
- Occupancy, % Replicate 2 (178 full-length kinases [14]): No Binding
- Occupancy, % Replicate 1 (178 full-length kinases [15]): No Binding
- Occupancy, % Replicate 2 (178 full-length kinases [15]): No Binding
- Occupancy, % Replicate 2 (178 full-length kinases [16]): No Binding
- Occupancy, % Replicate 1 (178 full-length kinases [17]): No Binding
- Occupancy, % Replicate 2 (178 full-length kinases [17]): No Binding
- receptor occupancy (178 full-length kinases [18]; read-out: Occupancy, % Replicate 1): 12%
- receptor occupancy (178 full-length kinases [18]; read-out: Occupancy, % Replicate 2): 12%
- Occupancy, % Replicate 1 (178 full-length kinases [19]): No Binding
- Occupancy, % Replicate 2 (178 full-length kinases [19]): No Binding

— publication PMC5814754, “Quantitative, Wide-Spectrum Kinase Profiling in Live Cells for Assessing the Effect of Cellular ATP on Target Engagement” (Cell Chemical Biology, 2018)
